Assay results from the supplement of paper PMC10307832.

How the values were obtained:
Test in all cases: relative viability (nuclei count vs DMSO), 5 days (fraction); higher = more cells survive
NCI-H1650 = tested on: NCI-H1650
In short: (§1)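 Lung cancer cell lines, seeded in 1536-well plates, were treated the following day by pin tool with a single drug or with five library-drug doses (not always all listed) in √10 steps on top of a fixed anchor-drug dose. Cells were fixed and nuclei stained in one step after 5 days, and nuclei were counted. Relative viability is the nuclei count for treated wells divided by that for vehicle wells, reported as medians of duplicate plates.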

NCI-H2087 = tested on: NCI-H2087
In short: as §1

NCI-H1651 = tested on: NCI-H1651
In short: as §1

COR-L23 = tested on: COR-L23
In short: as §1

COR-L 105 = tested on: COR-L 105
In short: as §1

HCC-44 = tested on: HCC-44
In short: as §1

NCI-H647 = tested on: NCI-H647
In short: as §1

NCI-H1975 = tested on: NCI-H1975
In short: as §1

EPLC-272H = tested on: EPLC-272H
In short: as §1

H3255 = tested on: H3255
In short: as §1

EKVX = tested on: EKVX
In short: as §1

NCI-H661 = tested on: NCI-H661
In short: as §1

NCI-H1792 = tested on: NCI-H1792
In short: as §1

HCC-827 = tested on: HCC-827
In short: as §1

NCI-H727 = tested on: NCI-H727
In short: as §1

HCC-15 = tested on: HCC-15
In short: as §1

LCLC-103H = tested on: LCLC-103H
In short: as §1

201T = tested on: 201T
In short: as §1

NCI-H358 = tested on: NCI-H358
In short: as §1

NCI-H520 = tested on: NCI-H520
In short: as §1

NCI-H1437 = tested on: NCI-H1437
In short: as §1

UMC-11 = tested on: UMC-11
In short: as §1

`Cc1cnc(-c2cnc(NCCNc3ccc(C#N)cn3)nc2-c2ccc(Cl)cc2Cl)[nH]1` + CC(=O)Nc1cccc(-n2c(=O)n(C3CC3)c(=O)c3c(Nc4ccc(I)cc4F)n(C)c(=O)c(C)c32)c1 [Trametinib] (partner 0.02 µM) was tested. Which relative viability (NCI-H1650; first compound 0.08 µM) did it give?
Its relative viability is 0.659.

And the relative viability (NCI-H1650; first compound 0.253 µM)?
Its relative viability is 0.47.

And the relative viability (NCI-H1650; first compound 0.8 µM)?
Its relative viability is 0.365.

What about the relative viability (NCI-H1650; first compound 2.53 µM) of the same compound?
Its relative viability is 0.469.

What about the relative viability (NCI-H2087; first compound 0.08 µM) of the same compound?
Its relative viability is 0.203.

What about the relative viability (NCI-H2087; first compound 0.8 µM) of the same compound?
Its relative viability is 0.214.

And the relative viability (NCI-H2087; first compound 2.53 µM)?
Its relative viability is 0.177.

And the relative viability (NCI-H1651; first compound 0.08 µM)?
Its relative viability is 0.855.

What about the relative viability (NCI-H1651; first compound 0.253 µM) of the same compound?
The relative viability was 0.706.

What about the relative viability (NCI-H1651; first compound 0.8 µM) of the same compound?
Its relative viability is 0.74.

And the relative viability (NCI-H1651; first compound 2.53 µM)?
Its relative viability is 0.864.

And the relative viability (COR-L23; first compound 0.08 µM)?
Its relative viability is 0.763.

What about the relative viability (COR-L23; first compound 0.253 µM) of the same compound?
The relative viability was 0.565.

And the relative viability (COR-L23; first compound 0.8 µM)?
Its relative viability is 0.642.

And the relative viability (COR-L23; first compound 2.53 µM)?
The relative viability was 0.585.

And the relative viability (COR-L 105; first compound 0.08 µM)?
Its relative viability is 0.481.

And the relative viability (COR-L 105; first compound 0.253 µM)?
Its relative viability is 0.383.

And the relative viability (COR-L 105; first compound 0.8 µM)?
Its relative viability is 0.324.

What about the relative viability (COR-L 105; first compound 2.53 µM) of the same compound?
Its relative viability is 0.415.

And the relative viability (HCC-44; first compound 0.08 µM)?
The relative viability was 1.13.

And the relative viability (HCC-44; first compound 0.253 µM)?
The relative viability was 1.02.

And the relative viability (HCC-44; first compound 0.8 µM)?
The relative viability was 1.01.

And the relative viability (HCC-44; first compound 2.53 µM)?
The relative viability was 1.04.

And the relative viability (NCI-H647; first compound 0.08 µM)?
The relative viability was 0.606.

What about the relative viability (NCI-H647; first compound 0.253 µM) of the same compound?
Its relative viability is 0.401.

What about the relative viability (NCI-H647; first compound 0.8 µM) of the same compound?
Its relative viability is 0.498.

What about the relative viability (NCI-H647; first compound 2.53 µM) of the same compound?
The relative viability was 0.601.

What about the relative viability (NCI-H1975; first compound 0.08 µM) of the same compound?
The relative viability was 0.35.

And the relative viability (NCI-H1975; first compound 0.253 µM)?
Its relative viability is 0.383.

What about the relative viability (NCI-H1975; first compound 0.8 µM) of the same compound?
The relative viability was 0.353.

What about the relative viability (NCI-H1975; first compound 2.53 µM) of the same compound?
Its relative viability is 0.339.

And the relative viability (EPLC-272H; first compound 0.08 µM)?
The relative viability was 0.26.

And the relative viability (EPLC-272H; first compound 0.253 µM)?
The relative viability was 0.298.

What about the relative viability (EPLC-272H; first compound 0.8 µM) of the same compound?
The relative viability was 0.314.

What about the relative viability (EPLC-272H; first compound 2.53 µM) of the same compound?
Its relative viability is 0.296.

And the relative viability (H3255; first compound 0.08 µM)?
Its relative viability is 0.794.

What about the relative viability (H3255; first compound 0.253 µM) of the same compound?
Its relative viability is 0.583.

And the relative viability (H3255; first compound 0.8 µM)?
The relative viability was 0.663.

What about the relative viability (H3255; first compound 2.53 µM) of the same compound?
Its relative viability is 0.668.

And the relative viability (EKVX; first compound 0.08 µM)?
The relative viability was 0.391.

And the relative viability (EKVX; first compound 0.253 µM)?
The relative viability was 0.328.

What about the relative viability (EKVX; first compound 0.8 µM) of the same compound?
Its relative viability is 0.256.

And the relative viability (EKVX; first compound 2.53 µM)?
The relative viability was 0.358.

What about the relative viability (NCI-H661; first compound 0.08 µM) of the same compound?
Its relative viability is 0.606.

And the relative viability (NCI-H661; first compound 0.253 µM)?
The relative viability was 0.537.

And the relative viability (NCI-H661; first compound 0.8 µM)?
The relative viability was 0.68.

And the relative viability (NCI-H661; first compound 2.53 µM)?
The relative viability was 0.681.

And the relative viability (NCI-H1792; first compound 0.08 µM)?
The relative viability was 0.525.

And the relative viability (NCI-H1792; first compound 0.253 µM)?
Its relative viability is 0.437.

What about the relative viability (NCI-H1792; first compound 0.8 µM) of the same compound?
The relative viability was 0.472.

And the relative viability (NCI-H1792; first compound 2.53 µM)?
The relative viability was 0.349.

And the relative viability (HCC-827; first compound 0.08 µM)?
Its relative viability is 0.597.

And the relative viability (HCC-827; first compound 0.253 µM)?
Its relative viability is 0.473.

And the relative viability (HCC-827; first compound 0.8 µM)?
The relative viability was 0.522.

And the relative viability (HCC-827; first compound 2.53 µM)?
Its relative viability is 0.434.

And the relative viability (NCI-H727; first compound 0.08 µM)?
Its relative viability is 0.384.

And the relative viability (NCI-H727; first compound 0.253 µM)?
The relative viability was 0.375.

And the relative viability (NCI-H727; first compound 0.8 µM)?
Its relative viability is 0.404.

What about the relative viability (NCI-H727; first compound 2.53 µM) of the same compound?
Its relative viability is 0.393.

And the relative viability (HCC-15; first compound 0.08 µM)?
Its relative viability is 0.449.

And the relative viability (HCC-15; first compound 0.253 µM)?
The relative viability was 0.391.

And the relative viability (HCC-15; first compound 0.8 µM)?
The relative viability was 0.383.

And the relative viability (HCC-15; first compound 2.53 µM)?
Its relative viability is 0.422.

And the relative viability (LCLC-103H; first compound 0.08 µM)?
The relative viability was 0.686.

What about the relative viability (LCLC-103H; first compound 0.253 µM) of the same compound?
Its relative viability is 0.676.

What about the relative viability (LCLC-103H; first compound 0.8 µM) of the same compound?
Its relative viability is 0.631.

What about the relative viability (LCLC-103H; first compound 2.53 µM) of the same compound?
The relative viability was 0.671.

What about the relative viability (201T; first compound 0.08 µM) of the same compound?
Its relative viability is 0.746.

What about the relative viability (201T; first compound 0.8 µM) of the same compound?
Its relative viability is 0.707.

And the relative viability (201T; first compound 2.53 µM)?
Its relative viability is 0.753.

What about the relative viability (NCI-H358; first compound 0.08 µM) of the same compound?
The relative viability was 0.147.

What about the relative viability (NCI-H358; first compound 0.253 µM) of the same compound?
Its relative viability is 0.143.

And the relative viability (NCI-H358; first compound 0.8 µM)?
The relative viability was 0.136.

And the relative viability (NCI-H358; first compound 2.53 µM)?
The relative viability was 0.13.

What about the relative viability (NCI-H520; first compound 0.08 µM) of the same compound?
The relative viability was 0.781.

What about the relative viability (NCI-H520; first compound 0.253 µM) of the same compound?
Its relative viability is 0.614.

And the relative viability (NCI-H520; first compound 0.8 µM)?
The relative viability was 0.788.

What about the relative viability (NCI-H520; first compound 2.53 µM) of the same compound?
The relative viability was 0.706.

And the relative viability (NCI-H1437; first compound 0.08 µM)?
Its relative viability is 0.677.

What about the relative viability (NCI-H1437; first compound 0.253 µM) of the same compound?
The relative viability was 0.492.

What about the relative viability (NCI-H1437; first compound 0.8 µM) of the same compound?
The relative viability was 0.489.

And the relative viability (NCI-H1437; first compound 2.53 µM)?
The relative viability was 0.381.

And the relative viability (UMC-11; first compound 0.08 µM)?
Its relative viability is 0.891.

What about the relative viability (UMC-11; first compound 0.253 µM) of the same compound?
The relative viability was 0.525.

What about the relative viability (UMC-11; first compound 0.8 µM) of the same compound?
Its relative viability is 0.377.

And the relative viability (UMC-11; first compound 2.53 µM)?
Its relative viability is 0.82.
